Measured values published in US7691904B2, “pH sensitive prodrugs of 2,6-diisopropylphenol” (Auspex Pharmaceuticals, Inc, priority 2003, dated 2010).

Tests used:
[1] = pH stability in pH=4.1 sodium acetate buffer, analyzed by LC-MS; assay type: physicochemical; details: 100 mg in 10 mL pH=4.1 sodium acetate buffer, ambient temperature, 48 hours
Procedure: A solution was prepared by dissolving 100 mg of N-(2-Piperidin-1-yl-ethyl)-succinamic acid 2,6-diisopropylphenyl ester hydrochloride in 10 mL of pH=4.1 sodium acetate buffer. The buffer was prepared by adding NaOH to a 20% aqueous acetic acid solution until the desired pH was reached. The solution was incubated at ambient temperature and analyzed by LC-MS after 48 hours.

Female mice = assay: In-vivo induction of anesthesia (graded sedation level after IP injection)
Procedure: Prodrugs were formulated as aqueous isotonic solutions at pH 7.4 in sterile water before administration to animals. Female mice were obtained from Charles River Laboratories (Wilmington, Mass.). The volume of injection was set at […] and animals were dosed IP at 100 mg/kg, 125 mg/kg, 150 mg/kg and 200 mg/kg. The monitoring of distinguishable levels of sedation started immediately after an injection and was continued for a 2-h period post-injection. The sedation level was graded according to the behavioral and reflex activity of animals injected with progressively increasing doses of each compound. Animals were graded as alert and normal when there was no observable change in their behavior; alert with decreased motor activity when ataxia with some ability to walk was observed; and awake and recumbent when loss of righting reflex occurred. Animals reaching somnolence but retaining response to painful stimuli (toe or tail pinch) were graded as sedated with normal reflexes, whereas animals that lost response to painful stimuli were graded as sedated with decreased reflexes (anesthetic level of sedation). Death resulting from the overdose was also recorded as a last level.

SMILES	Decomposition in solution [1]	Duration of anesthesia (Female mice; 100 mg/kg) [min]	Full anesthesia (Female mice; 100 mg/kg)	End of effect (time post injection, in parentheses) (Female mice; 100 mg/kg, time post injection) [min]	Onset of sedation (Female mice; 100 mg/kg, time post injection) [min]	Duration of sedation (Female mice; 125 mg/kg) [min]	Full anesthesia (Female mice; 125 mg/kg)	End of sedation (time post injection, in parentheses) (Female mice; 125 mg/kg, time post injection) [min]	Onset of sedation (Female mice; 125 mg/kg, time post injection) [min]	Duration of anesthesia (Female mice; 200 mg/kg) [min]	End of anesthesia (time post injection, in parentheses) (Female mice; 200 mg/kg, time post injection) [min]	Full anesthesia (Female mice; 200 mg/kg, time post injection) [min]	Onset of sedation (Female mice; 200 mg/kg, time post injection) [min]	Duration of anesthesia (Female mice; 150 mg/kg) [min]	End of anesthesia (time post injection, in parentheses) (Female mice; 150 mg/kg, time post injection) [min]	Full anesthesia (Female mice; 150 mg/kg, time post injection) [min]	Onset of sedation (Female mice; 150 mg/kg, time post injection) [min]
CC(C)c1cccc(C(C)C)c1OC(=O)CCC(=O)NCCN1CCCCC1.Cl [N-(2-piperidin-1-yl-ethyl)-succinamic acid 2,6-diisopropylphenyl ester hydrochloride]	No trace of decomposition	11	not reached	13	2	13	not reached	15	2	12	16	5	2	–	–	–	–
CC(C)c1cccc(C(C)C)c1OC(=O)CCC(=O)NCCN1CCCC1.Cl [N-(2-pyrrolidin-1-yl-ethyl)-succinamic acid 2,6-diisopropylphenyl ester hydrochloride]	–	–	–	–	–	–	–	–	–	21	25	4	2	10	14	4	2
